Source: patent publication EP0054589B1, “Organic phosphoric acid ester derivatives, a process for preparing the same and insecticidal, miticidal or nematocidal compositions containing the same” (priority 1980, dated 1982)

Experiments:
[1] = tested on: rice stem borer; test: Insecticidal effect on rice stem borer, 3rd-instar larvae (rice seedling dip); assay type: in vivo, Chilo suppressalis; conditions: after 72 hours, 25°C
Procedure: (§1) (A) A wettable powder prepared as described in Formulation Example 5 was diluted with water to a predetermined concentration. Rice seedlings were dipped into the dilute solution and placed in a 60 ml volume cup made of vinyl chloride resin, and 10 3rd-instar larvae of rice stem borer were put in each cup. The cups were capped and maintained at 25°C.
as §1, with “(B) A” for “(A) A”, “Example 7” for “Example 5”

[2] = tested on: tobacco cutworm; test: Insecticidal effect on tobacco cutworm (cabbage leaf dip); assay type: in vivo, Prodenia litura; conditions: after 48 hours, 25°C
Procedure: (§2) (A) An emulsifiable concentrate prepared as described in Formulation Example 1 was diluted with water to a predetermined concentration and then cabbage leaves were dipped into the dilute solution and dried in air and placed in a 60 ml volume cup made of vinyl chloride resin. 3rd-instar larvae of tobacco cutworm were put in each cup and maintained at 25°C. After 48 hours, percent mortality was assessed. The test was replicated 3 times for each compound using 30 insects in each test.
as §2, with “(B)” for “(A)”, “3” for “1”

[3] = tested on: Apple; test: Phytotoxicity on various crops; assay type: in vivo; design: key: Symbol — indicates that no toxicity was observed; conditions: 500 ppm sprayed; checked visually after 10 days
Procedure: (§3) An emulsifiable concentrate prepared as described in Formulation Example 2 was diluted with water to a concentration of 500 ppm based on the effective ingredient and sprayed sufficiently using a spray-gun onto various test plants. The plants were kept in a green house. After 10 days from the application phytotoxicity was checked visually. The test was replicated 3 times for each compound.

[4] = tested on: Beet; test: Phytotoxicity on various crops; assay type: in vivo; design: key: Symbol — indicates that no toxicity was observed; conditions: 500 ppm sprayed; checked visually after 10 days
Procedure: as §3

[5] = tested on: Cabbage; test: Phytotoxicity on various crops; assay type: in vivo; design: key: Symbol — indicates that no toxicity was observed; conditions: 500 ppm sprayed; checked visually after 10 days
Procedure: as §3

[6] = tested on: Cotton; test: Phytotoxicity on various crops; assay type: in vivo; design: key: Symbol — indicates that no toxicity was observed; conditions: 500 ppm sprayed; checked visually after 10 days
Procedure: as §3

[7] = tested on: Cucumber; test: Phytotoxicity on various crops; assay type: in vivo; design: key: Symbol — indicates that no toxicity was observed; conditions: 500 ppm sprayed; checked visually after 10 days
Procedure: as §3

[8] = tested on: Green Pepper; test: Phytotoxicity on various crops; assay type: in vivo; design: key: Symbol — indicates that no toxicity was observed; conditions: 500 ppm sprayed; checked visually after 10 days
Procedure: as §3

[9] = tested on: Kidney Bean; test: Phytotoxicity on various crops; assay type: in vivo; design: key: Symbol — indicates that no toxicity was observed; conditions: 500 ppm sprayed; checked visually after 10 days
Procedure: as §3

[10] = tested on: Rice; test: Phytotoxicity on various crops; assay type: in vivo; design: key: Symbol — indicates that no toxicity was observed; conditions: 500 ppm sprayed; checked visually after 10 days
Procedure: as §3

[11] = tested on: Tea; test: Phytotoxicity on various crops; assay type: in vivo; design: key: Symbol — indicates that no toxicity was observed; conditions: 500 ppm sprayed; checked visually after 10 days
Procedure: as §3

[12] = tested on: Tomato; test: Phytotoxicity on various crops; assay type: in vivo; design: key: Symbol — indicates that no toxicity was observed; conditions: 500 ppm sprayed; checked visually after 10 days
Procedure: as §3

[13] = tested on: egg plant; test: Phytotoxicity on various crops; assay type: in vivo; design: key: Symbol — indicates that no toxicity was observed; conditions: 500 ppm sprayed; checked visually after 10 days
Procedure: as §3

[14] = tested on: tobacco cutworm; test: Long-lasting insecticidal effect on tobacco cutworm (sprayed cabbage plantlet); assay type: in vivo, Prodenia litura; conditions: Table 5, concentration 500 (unit not given), mortality after 48 hours
Procedure: (§4) (A) An emulsifiable concentrate prepared as described in Formulation Example 2 was diluted with water to a predetermined concentration and sprayed onto a cabbage plantlet in a flower pot of 15 cm in diameter using a spray-gun sufficiently and the tests plants were placed in a green house. The leaves of the plants were cut off on the 3rd, 5th, 7th, 10th and 15th day and placed in a 60 ml volume cup and 3rd-instar larvae of tobacco cutworm were put in each cup. The cups were kept in an incubator (25°C). After 48 hours, percent mortality was assessed. The tests was replicated 3 times for each compound using 30 insects in each test.
as §4, with “(B) An” for “(A) An”, “Example 3” for “Example 2”, “and 1 5th” for “and 15th”

[15] = Table 1, 500 ppm, wettable powder as Formulation Example 5
[16] = Table 3, 500 ppm, emulsifiable concentrate as Formulation Example 1
[17] = Table 1, 100 ppm, wettable powder as Formulation Example 5
[18] = Table 2, 100 ppm, wettable powder as Formulation Example 7
[19] = Table 4, 100 ppm, emulsifiable concentrate as Formulation Example 3

Molecule	Percent Mortality (%) [1, 15] [%]	Percent Mortality (%) [2, 16] [%]	Phytotoxicity: Apple [3]	Phytotoxicity: Beet [4]	Phytotoxicity: Cabbage [5]	Phytotoxicity: Cotton [6]	Phytotoxicity: Cucumber [7]	Phytotoxicity: Green Pepper [8]	Phytotoxicity: Kidney Bean [9]	Phytotoxicity: Rice [10]	Phytotoxicity: Tea [11]	Phytotoxicity: Tomato [12]	Phytotoxicity: Egg Plant [13]	further results
CCCOP(=O)(Oc1ccc2c(c1)OC(C)=CC2(C)C)SCCC (centres unmarked) [Compound No. 3]	100	100	—	—	—	—	—	—	—	—	—	—	—	
CCOP(=O)(Oc1ccc2c(c1)OC(C)=CC2(C)C)SCC (centres unmarked) [Compound No. 8]	100	100	—	—	—	—	—	—	—	—	—	—	—	
CCCOP(=O)(Oc1ccc2c(c1)OC(C)=CC2(C)C)SC (centres unmarked) [Compound No. 13]	100	100	—	—	—	—	—	—	—	—	—	—	—	
CCCSP(=O)(OCC)Oc1ccc2c(c1)OC(CC)=C(C)C2(CC)CC (centres unmarked) [Compound No. 21, O-ethyl-S-propyl-O-(2,4,4-triethyl-3-methyl-1,2-benzopyran-7-yl)phosphorothioate]	100		—	—	—	—	—	—	—	—	—	—	—	Percent Mortality (%) [1, 17]: 100%; Percent Mortality (%) [1, 18]: 100%; Percent Mortality (%) [2, 19]: 100%
CCOP(=S)(Oc1cccc2c1C(C)=CC(C)(C)O2)SC(C)CC (centres unmarked) [Compound No. 27]			—	—	—	—	—	—	—	—	—	—	—	Percent Mortality (%) [1, 18]: 100%; Percent Mortality (%) [2, 19]: 100%
COP(=O)(OC)C(O)C(Cl)(Cl)Cl (centres unmarked) [Dipterex, dimethyl 2,2,2-trichloro-1-hydroxyethyl phosphonate, reference compound]	100													Percent Mortality (%) [1, 17]: 100%
CNC(=O)ON=C(C)SC [Lannate, S-methyl N-(methylcarbamoyloxy)thioacetimidate, reference compound]														Percent Mortality After Application 3rd Day ([14]; leaves cut on 3rd day): 80%; Percent Mortality After Application 5th Day ([14]; leaves cut on 5th day): 30%; Percent Mortality After Application 7th Day ([14]; leaves cut on 7th day): 7%; Percent Mortality After Application 10th Day ([14]; leaves cut on 10th day): 0%; Percent Mortality After Application 15th Day ([14]; leaves cut on 15th day): 0%
COP(=O)(NC(C)=O)SC (centres unmarked) [Orthene, O,S-dimethyl acetylphosphoramidothioate, reference compound]		90.0												
COP(=S)(OC)Oc1ccc([N+](=O)[O-])c(C)c1 [Sumithion, dimethyl(3-methyl-4-nitrophenyl)thiophosphate, reference compound]														Percent Mortality (%) ([1]; Table 2, concentration not given): 100%
CCCCOP(=O)(Oc1ccc2c(c1)OC(C)=CC2(C)C)SCCC (centres unmarked) [compound 4]	100	100	—	—	—	—	—	—	—	—	—	—	—	
CCOP(=S)(Oc1ccc2c(c1)OC(C)=CC2(C)C)SCC (centres unmarked) [compound 12]	100	100	—	—	—	—	—	—	—	—	—	—	—	
CCCSP(=O)(Oc1ccc2c(c1)OC(C)=CC2(C)C)OC(C)CC (centres unmarked) [compound 15]	100	100	—	—	—	—	—	—	—	—	—	—	—	
O-isopropyl-S-isopropyl-O-(2,4,4-trimethyl-1,4-benzopyran-7-yl)phosphorothioate [Compound No. 7]	100	100	—	—	—	—	—	—	—	—	—	—	—	
